In patent publication US12338216B2, “Solvates of abscisic acid and liquid compositions containing abscisic acid” (Clariant International Ltd., priority 2019, dated 2025):

Legend:
[1] = system: enzymatically isolated cuticles of pear tree leaves; assay: Penetration of abscisic acid through enzymatically isolated cuticles of pear tree leaves (HPLC); assay type: in vitro ADME; details: active ingredient 0.1 g/L in spray liquid, tap water, n = 8-10
Experimental: In this test, the penetration of abscisic acid through enzymatically isolated cuticles of pear tree leaves was measured. The principle of the method has been published and described in detail e.g. in WO-A-2005/194844 or WO2017211572 A1.
To determine the penetration, 10 μl a spray liquor of the composition mentioned in the examples were applied to the outer side of a cuticle. In the spray liquors tap water was used in each case.
After application of the spray liquors was allowed to evaporate in each case the water, then in each case the chambers were inverted and placed in thermostated troughs, with air being blown at a defined temperature and humidity to the outside of the cuticle. The incipient penetration therefore took place at a relative humidity of 56% and a set temperature at 10° C. and 25° C. The penetration of active ingredients was determined by High Performance Liquid Chromatography (HPLC).

[2] = room temperature; cited from earlier work
[3] = system: poinsettia plants, e.g. the Merlot variety; assay: Phytotoxicity / plant compatibility on indicator plants; assay type: in vivo; details: 1 g/L; within one day
Excerpt: The plant compatibility of the abscisic acid was checked using indicator plants such as poinsettia plants, e.g. the Merlot variety. If no necrosis or other phytotoxicity symptoms such as leaf curl-up or deformation in any case were observed the substance is considered plant compatible and not phytotoxic.

## CC1=CC(=O)CC(C)(C)[C@@]1(O)/C=C/C(C)=C\C(=O)O [abscisic acid, (2Z,4E)-5-[(1S)-1-hydroxy-2,6,6-trimethyl-4-oxocyclohex-2-en-1-yl]-3-methylpenta-2,4-dienoic acid]
[1]; 10° C./56% rH, 1 day
  Mean penetration for abscisic acid after time: 5.3%
[1]; 10° C./56% rH, 2 day
  Mean penetration for abscisic acid after time: 8.2%
[1]; 25° C./56% rH, 1 day
  Mean penetration for abscisic acid after time: 1.4%
[1]; 25° C./56% rH, 2 day
  Mean penetration for abscisic acid after time: 2.2%
[2]
  Highest concentration that can be achieved in water: about 3000 ppm

## ethoxylated lauryl alcohol
[3]
  Phytotoxicity symptoms: strong distinct necrosis
